Data published in the supplement of paper PMC5908809.

Key:
[1] = system: normal NK cells expanded with K562-aAPC; experiment: drug sensitivity score (DSS) (DSS units); higher = more sensitive; extreme values may be limits of the assay; conditions: 72 h; IL-2 2.5 ng/mL
Method: (§1)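 Drug sensitivity and resistance testing on K562-aAPC-expanded normal NK cells: 5 concentrations (10-fold steps over a 10,000-fold range), 72 h at 37 °C, viability by CellTiter-Glo normalised to DMSO and benzethonium chloride controls; DSS from the fitted curve.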

[2] = system: normal NK cells expanded with K562-aAPC; experiment: percent inhibition of viability; higher = more inhibition; conditions: 72 h, IL-2 2.5 ng/mL
Method: as §1

[3] = system: normal primary NK cells, pool 1 (3 donors), resting (IL-2 0 ng/mL); experiment: as above; conditions: 72 h
[4] = system: normal primary NK cells, pool 2 (3 donors) (IL-2 2.5 ng/mL); experiment: as above; conditions: 72 h
[5] = system: KAI3 (IL-2 2.5 ng/mL); experiment: as above; conditions: 72 h
[6] = system: KHYG-1 (IL-2 2.5 ng/mL); experiment: as above; conditions: 72 h
[7] = system: NKL (IL-2 2.5 ng/mL); experiment: as above; conditions: 72 h
[8] = system: YT (IL-2 2.5 ng/mL); experiment: as above; conditions: 72 h
[9] = system: IMC-1 (IL-2 20 ng/mL); experiment: as above; conditions: 72 h
[10] = system: DERL-7 (IL-2 2.5 ng/mL); experiment: as above; conditions: 72 h
[11] = system: NK-92 (IL-2 2.5 ng/mL); experiment: as above; conditions: 72 h
[12] = system: normal primary NK cells, pool 3 (3 donors) (IL-2 2.5 ng/mL); experiment: as above; conditions: 72 h
[13] = system: NK-YS (IL-2 2.5 ng/mL); experiment: as above; conditions: 72 h
[14] = system: normal primary NK cells, pool 1 (3 donors) (IL-2 2.5 ng/mL); experiment: as above; conditions: 72 h
[15] = system: SNK-6 (IL-2 2.5 ng/mL); experiment: as above; conditions: 72 h
[16] = system: normal primary NK cells, pool 1 (3 donors), resting (IL-2 0 ng/mL); experiment: drug sensitivity score (DSS) (DSS units); higher = more sensitive; extreme values may be limits of the assay; conditions: 72 h
[17] = system: normal primary NK cells, pool 2 (3 donors) (IL-2 2.5 ng/mL); experiment: as above; conditions: 72 h
[18] = system: KAI3 (IL-2 2.5 ng/mL); experiment: as above; conditions: 72 h
[19] = system: KHYG-1 (IL-2 2.5 ng/mL); experiment: as above; conditions: 72 h
[20] = system: NKL (IL-2 2.5 ng/mL); experiment: as above; conditions: 72 h
[21] = system: YT (IL-2 2.5 ng/mL); experiment: as above; conditions: 72 h
[22] = system: IMC-1 (IL-2 20 ng/mL); experiment: as above; conditions: 72 h
[23] = system: DERL-7 (IL-2 2.5 ng/mL); experiment: as above; conditions: 72 h
[24] = system: NK-92 (IL-2 2.5 ng/mL); experiment: as above; conditions: 72 h
[25] = system: normal primary NK cells, pool 3 (3 donors) (IL-2 2.5 ng/mL); experiment: as above; conditions: 72 h
[26] = system: NK-YS (IL-2 2.5 ng/mL); experiment: as above; conditions: 72 h
[27] = system: normal primary NK cells, pool 1 (3 donors) (IL-2 2.5 ng/mL); experiment: as above; conditions: 72 h
[28] = system: SNK-6 (IL-2 2.5 ng/mL); experiment: as above; conditions: 72 h

COc1cc2c(NC3CCN(C(C)C)CC3)nc(N3CCC(F)(F)CC3)nc2cc1OCCCN1CCCC1 [UNC0642] (max concentration tested 10000 nM)
Conditions | drug sensitivity score
[1] | 7.22
[16] | 9.04
[17] | 5.23
[18] | 11.3
[19] | 2.2
[20] | 9.05
[21] | 4.75
[22] | 6.92
[23] | 5.6
[24] | 3.1
[25] | 5.16
[26] | 6.94
[27] | 8.52
[28] | 9.35

percent inhibition of viability [%]
Conditions | 1 nM | 10 nM | 100 nM | 1000 nM | 10000 nM
[2] | -4.11 | -7.96 | -1.75 | 10.2 | 100
[3] | 9.19 | 22.7 | 14 | 28.9 | 98.6
[4] | -4.62 | 6.45 | -2.04 | -4.01 | 99.7
[5] | -0.96 | 1.92 | 10.1 | 48.5 | 103
[6] | -4.39 | -1.22 | -6.31 | 6.97 | 28.1
[7] | -6.06 | -13.9 | -8.65 | 22.1 | 105
[8] | -6.39 | -3.26 | -2.23 | 4.47 | 74.2
[9] | -11.9 | -4.05 | -6.38 | 8.61 | 100
[10] | -0.28 | 1.37 | -1.94 | 0.05 | 99.9
[11] | -11 | -2.07 | -11.4 | 3.52 | 49
[12] | -1.76 | 4.79 | 4.65 | -5.45 | 100
[13] | -3.38 | -1.95 | 0.35 | 8.5 | 101
[14] | -1.76 | 13.1 | 19.9 | 18.1 | 101
[15] | -9.05 | 11.3 | 2.25 | 25.3 | 99.3

O=C(c1ccc(C(=O)N2CCC(N3CCCC3)CC2)c(Nc2ccccc2)c1)N1CCC(N2CCCC2)CC1 [UNC1215] (max concentration tested 30000 nM)
Conditions | drug sensitivity score
[1] | 0
[16] | 0
[17] | 0.28
[18] | 0.59
[19] | 0.12
[20] | 0
[21] | 0
[22] | 0.31
[23] | 0
[24] | 0.29
[25] | 0.52
[26] | 0.25
[27] | 0
[28] | 0

percent inhibition of viability [%]
Conditions | 3 nM | 30 nM | 300 nM | 3000 nM | 30000 nM
[2] | 3.82 | 0.21 | 4.98 | 5.27 | 6.03
[3] | -4.97 | 4.4 | -12.3 | -0.15 | -14.2
[4] | -8.79 | -4.27 | -3.06 | 7.44 | 11.8
[5] | 1.7 | 4.58 | 5.63 | 3.2 | 16.4
[6] | -1.52 | -1.25 | -0.64 | 3.44 | 11.4
[7] | -7.8 | -11.1 | -0.61 | -5.87 | 10.9
[8] | -2.24 | -2.54 | -0.78 | 1.55 | 4.57
[9] | -3.72 | -5.44 | 3.3 | 4.34 | 14.3
[10] | -1.53 | 0.01 | 3.61 | 7.89 | 3.14
[11] | -15.1 | -6.53 | 5.43 | 7.05 | 13.6
[12] | -6.54 | -6.05 | -0.93 | 8.8 | 12.9
[13] | -2.93 | -6.82 | 1.29 | 4.26 | 12.9
[14] | -4.87 | 7.23 | -8 | 1.14 | -2.52
[15] | -4.87 | -19.4 | 0.88 | -4.07 | -10.5

CS(=O)(=O)c1ccc(-c2cnc(N)c(C(=O)Nc3ccccc3)n2)cc1 [VE-821] (max concentration tested 10000 nM)
Conditions | drug sensitivity score
[1] | 3.68
[16] | 0
[17] | 0.62
[18] | 8.88
[19] | 8.93
[20] | 0.89
[21] | 0
[22] | 4.37
[23] | 4.71
[24] | 7.01
[25] | 0.29
[26] | 4.96
[27] | 0
[28] | 6.77

percent inhibition of viability [%]
Conditions | 1 nM | 10 nM | 100 nM | 1000 nM | 10000 nM
[2] | -5.95 | -7.38 | -2.06 | 18.1 | 32.8
[3] | 9.92 | 20.7 | 22.8 | 23 | 21.5
[4] | -7.66 | 8.41 | 7.62 | 7.68 | 15.6
[5] | -6.99 | -6.14 | 7.79 | 43.5 | 52
[6] | -3.09 | -0.84 | 3.42 | 23.8 | 95.3
[7] | -16.3 | -14.8 | -15.7 | -0.56 | 24.9
[8] | -4.34 | -6.49 | -4.51 | 4.75 | 9.28
[9] | -4.03 | 0.79 | -1.04 | 4.32 | 67.9
[10] | 4.33 | 7.29 | 1.29 | 12.9 | 50.9
[11] | -13.2 | -3.86 | 2.78 | 36 | 48
[12] | -3.66 | 1.35 | 5.12 | 0.23 | 15.6
[13] | -5.61 | -3.96 | 4.64 | 25.1 | 40.2
[14] | -1.78 | 22.5 | 3.18 | 5.45 | 6.99
[15] | 3.87 | -9.33 | -1.01 | 33.3 | 52.1
